Results taken from ChEMBL document CHEMBL1144985, “Rational design, synthesis and structure-activity relationships of a cyclic succinate series of TNF-alpha converting enzyme inhibitors. Part 2: lead optimization” (Bioorg Med Chem Lett, 2003).
Values after ≈ are worked out from the molar mass of the structure shown.

Experiments:
Interstitial collagenase = molecular target: T1, Interstitial collagenase (Homo sapiens, UniProt P03956); assay: Inhibitory activity against matrix metalloprotease-1 (MMP-1)
T1 sequence (P03956 whole entry): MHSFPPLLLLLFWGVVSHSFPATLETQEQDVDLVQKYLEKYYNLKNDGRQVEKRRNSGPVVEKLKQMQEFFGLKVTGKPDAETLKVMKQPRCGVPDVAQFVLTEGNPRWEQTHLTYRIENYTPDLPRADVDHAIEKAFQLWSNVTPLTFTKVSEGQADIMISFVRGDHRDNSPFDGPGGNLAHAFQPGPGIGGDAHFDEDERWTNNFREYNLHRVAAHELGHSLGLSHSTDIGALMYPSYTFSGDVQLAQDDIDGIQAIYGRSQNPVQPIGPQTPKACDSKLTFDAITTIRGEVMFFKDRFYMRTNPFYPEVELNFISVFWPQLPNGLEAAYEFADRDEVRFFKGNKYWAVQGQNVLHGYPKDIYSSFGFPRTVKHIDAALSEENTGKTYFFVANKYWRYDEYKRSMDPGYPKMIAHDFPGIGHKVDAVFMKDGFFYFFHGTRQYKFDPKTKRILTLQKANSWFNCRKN

[1] = molecular target: Disintegrin and metalloproteinase domain-containing protein 17 (Sus scrofa, UniProt O77636); assay: In vitro binding affinity against porcine TACE
Sequence of Disintegrin and metalloproteinase domain-containing protein 17 (O77636 whole entry, the tested form may be a part): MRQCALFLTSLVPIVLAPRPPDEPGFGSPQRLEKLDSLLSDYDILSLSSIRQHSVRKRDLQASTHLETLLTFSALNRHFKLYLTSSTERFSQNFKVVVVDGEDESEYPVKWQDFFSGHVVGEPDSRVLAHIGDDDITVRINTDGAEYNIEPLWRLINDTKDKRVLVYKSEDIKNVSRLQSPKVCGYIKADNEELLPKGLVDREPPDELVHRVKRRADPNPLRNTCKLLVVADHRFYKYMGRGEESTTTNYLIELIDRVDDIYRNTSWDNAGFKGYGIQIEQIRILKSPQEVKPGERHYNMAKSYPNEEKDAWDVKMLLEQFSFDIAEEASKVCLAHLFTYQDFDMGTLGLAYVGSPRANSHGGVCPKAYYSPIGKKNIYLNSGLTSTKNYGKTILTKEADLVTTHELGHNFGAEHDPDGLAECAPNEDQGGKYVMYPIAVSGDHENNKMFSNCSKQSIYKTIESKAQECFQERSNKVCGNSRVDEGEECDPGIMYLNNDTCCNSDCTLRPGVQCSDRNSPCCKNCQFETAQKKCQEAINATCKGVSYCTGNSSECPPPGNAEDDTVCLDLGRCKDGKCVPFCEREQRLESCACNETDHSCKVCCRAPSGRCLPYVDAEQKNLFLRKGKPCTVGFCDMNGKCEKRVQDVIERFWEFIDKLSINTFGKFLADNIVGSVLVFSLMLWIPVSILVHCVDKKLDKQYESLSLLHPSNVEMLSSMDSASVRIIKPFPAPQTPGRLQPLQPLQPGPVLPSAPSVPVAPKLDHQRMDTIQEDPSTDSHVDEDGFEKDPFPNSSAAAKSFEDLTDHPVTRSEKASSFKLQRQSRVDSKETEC

[2] = molecular target: 72 kDa type IV collagenase (Homo sapiens, UniProt P08253); assay: Inhibitory activity against matrix metalloprotease-2 (MMP-2)
Sequence of 72 kDa type IV collagenase (P08253 whole entry): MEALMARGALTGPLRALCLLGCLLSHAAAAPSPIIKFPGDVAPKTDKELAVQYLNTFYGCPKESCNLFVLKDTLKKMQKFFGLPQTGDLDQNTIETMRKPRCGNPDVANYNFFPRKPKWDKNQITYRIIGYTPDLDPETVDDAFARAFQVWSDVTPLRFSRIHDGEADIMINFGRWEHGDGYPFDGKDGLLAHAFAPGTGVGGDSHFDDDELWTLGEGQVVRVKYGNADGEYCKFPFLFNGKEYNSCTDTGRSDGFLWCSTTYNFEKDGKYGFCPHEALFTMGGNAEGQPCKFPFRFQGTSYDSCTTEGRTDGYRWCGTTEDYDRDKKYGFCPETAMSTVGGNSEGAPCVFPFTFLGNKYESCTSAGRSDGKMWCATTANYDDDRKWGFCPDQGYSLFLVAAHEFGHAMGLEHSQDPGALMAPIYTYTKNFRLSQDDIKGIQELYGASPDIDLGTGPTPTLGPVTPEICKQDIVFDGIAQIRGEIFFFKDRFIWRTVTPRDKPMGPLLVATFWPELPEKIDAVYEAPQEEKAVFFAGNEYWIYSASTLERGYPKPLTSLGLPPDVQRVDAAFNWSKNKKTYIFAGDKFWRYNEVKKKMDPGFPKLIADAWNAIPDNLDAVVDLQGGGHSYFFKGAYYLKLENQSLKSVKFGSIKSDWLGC

[3] = molecular target: Matrix metalloproteinase-9 (Homo sapiens, UniProt P14780); assay: Inhibitory activity against matrix metalloprotease-9 (MMP-9)
Sequence of Matrix metalloproteinase-9 (P14780 whole entry): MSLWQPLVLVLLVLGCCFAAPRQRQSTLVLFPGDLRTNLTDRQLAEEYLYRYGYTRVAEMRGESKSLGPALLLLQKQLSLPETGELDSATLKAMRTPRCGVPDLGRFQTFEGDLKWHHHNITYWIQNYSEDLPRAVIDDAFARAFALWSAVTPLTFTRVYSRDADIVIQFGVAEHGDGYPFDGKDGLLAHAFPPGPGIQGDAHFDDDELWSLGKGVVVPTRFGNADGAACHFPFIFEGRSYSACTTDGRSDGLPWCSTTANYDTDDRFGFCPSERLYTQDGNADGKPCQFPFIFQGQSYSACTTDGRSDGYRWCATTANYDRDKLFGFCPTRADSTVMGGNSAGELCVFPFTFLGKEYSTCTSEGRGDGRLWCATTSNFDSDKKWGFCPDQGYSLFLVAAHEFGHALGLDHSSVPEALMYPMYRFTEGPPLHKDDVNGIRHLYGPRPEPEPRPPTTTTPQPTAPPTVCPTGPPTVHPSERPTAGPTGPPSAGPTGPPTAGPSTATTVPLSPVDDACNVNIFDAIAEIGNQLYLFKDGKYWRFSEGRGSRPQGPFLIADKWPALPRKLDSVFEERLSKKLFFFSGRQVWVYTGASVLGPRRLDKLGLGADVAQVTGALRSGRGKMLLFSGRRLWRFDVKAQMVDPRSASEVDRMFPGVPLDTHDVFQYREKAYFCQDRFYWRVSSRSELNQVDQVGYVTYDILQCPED

Homo sapiens = organism: Homo sapiens; assay: In vitro inhibition of TNF-alpha production was determined by using LPS-stimulated human whole blood assay (WBA); format: functional
[4] = Solubility was determined
Caco-2 = details: Homo sapiens
Description: Caco-2 permeability was determined

| SMILES | Ki (Interstitial collagenase) | IC50 [1] | Ki [2] | Ki [3] | IC50 (Homo sapiens) | solubility [4] | Papp (Caco-2) |
| --- | --- | --- | --- | --- | --- | --- | --- |
| Cc1cc(COc2ccc(NC(=O)[C@@H]3[C@@H](C(=O)NO)CCCN3CC3CC3)cc2)c2ccccc2n1 | > 4950 nM | 1 nM | > 3330 nM | > 2130 nM | 400 nM | – | – |
| Cc1cc(COc2ccc(NC(=O)[C@H]3CCNC[C@@H]3C(=O)NO)cc2)c2ccccc2n1 | > 4950 nM | 1.5 nM | > 3330 nM | > 2130 nM | 4300 nM | > 10000 µg/mL | – |
| O=C(NO)[C@H]1CN(C(=O)C2CC2)CC[C@@H]1C(=O)Nc1ccc(COc2ccnc3ccccc23)cc1 | > 4950 nM | 2 nM | > 3330 nM | > 2130 nM | 710 nM | – | – |
| Cc1cc(COc2ccc(NC(=O)[C@H]3CN(Cc4nccs4)CC[C@@H]3C(=O)NO)cc2)c2ccccc2n1 | > 4950 nM | 0.8 nM | > 3330 nM | > 2130 nM | 560 nM | – | – |
| CCN1CCC[C@H](C(=O)NO)[C@H]1C(=O)Nc1ccc(OCc2cc(C)nc3ccccc23)cc1 | > 4950 nM | 8 nM | > 3330 nM | > 2130 nM | 100 nM | > 10000 µg/mL | – |
| Cc1cc(COc2ccc(NC(=O)[C@H]3CNCC[C@@H]3C(=O)NO)cc2)c2ccccc2n1 | > 4950 nM | 3 nM | > 3330 nM | > 2130 nM | 530 nM | > 10000 µg/mL | – |
| Cc1cc(COc2ccc(NC(=O)[C@H]3NCCC[C@@H]3C(=O)NO)cc2)c2ccccc2n1 | > 4950 nM | 1 nM | > 3330 nM | > 2130 nM | 120 nM | – | – |
| Cc1cc(COc2ccc(NC(=O)[C@H]3CCN(C(=O)NC(C)(C)C)C[C@@H]3C(=O)NO)cc2)c2ccccc2n1 | > 4950 nM | 0.41 nM | > 3330 nM | > 2130 nM | 560 nM | – | – |
| Cc1cc(COc2ccc(NC(=O)[C@H]3CCN(C(=O)C(C)C)C[C@@H]3C(=O)NO)cc2)c2ccccc2n1 | > 4950 nM | 0.22 nM | > 3330 nM | > 2130 nM | 270 nM | 30 µg/mL (≈ 59.5 µM) | 0.3 10e-6 cm s-1 |
| Cc1cc(COc2ccc(NC(=O)[C@H]3CCN(C(=O)OCc4nccs4)C[C@@H]3C(=O)NO)cc2)c2ccccc2n1 | > 4950 nM | < 0.3 nM | 1540 nM | 768 nM | 450 nM | – | – |
| Cc1cc(COc2ccc(NC(=O)[C@H]3CCN(S(=O)(=O)c4cn(C)cn4)C[C@@H]3C(=O)NO)cc2)c2ccccc2n1 | > 4950 nM | 0.31 nM | 1000 nM | 366 nM | 1500 nM | – | – |
| O=C(NO)[C@H]1CN(C(=O)C2CC2)CC[C@@H]1C(=O)Nc1ccc(Oc2ccnc3ccccc23)cc1 | > 4950 nM | > 1000 nM | > 3330 nM | > 2130 nM | > 50000 nM | – | – |
| CCCC(=O)N1CC[C@H](C(=O)Nc2ccc(OCc3cc(C)nc4ccccc34)cc2)[C@@H](C(=O)NO)C1 | > 4950 nM | 0.26 nM | > 3330 nM | > 2130 nM | 330 nM | – | – |
| O=C(NO)[C@H]1CCCC[C@@H]1C(=O)Nc1ccc(COc2ccnc3ccccc23)cc1 | > 4950 nM | – | > 3330 nM | > 2130 nM | > 50000 nM | – | – |
| O=C(NO)[C@H]1CN(C(=O)C2CC2)CC[C@@H]1C(=O)Nc1ccc(OCc2ccnc3ccccc23)cc1 | > 4950 nM | 1 nM | > 3330 nM | > 2130 nM | 1300 nM | – | – |
| Cc1cc(COc2ccc(NC(=O)[C@H]3CN(CC4CC4)CC[C@@H]3C(=O)NO)cc2)c2ccccc2n1 | > 4950 nM | 1 nM | > 3330 nM | > 2130 nM | 300 nM | > 10000 µg/mL | – |
| COC(=O)N1CC[C@H](C(=O)Nc2ccc(OCc3cc(C)nc4ccccc34)cc2)[C@@H](C(=O)NO)C1 | > 4950 nM | 0.28 nM | 1110 nM | 767 nM | 570 nM | – | – |

| SMILES | Ki (Interstitial collagenase) | IC50 [1] | Ki [2] | Ki [3] | IC50 (Homo sapiens) | solubility [4] | Papp (Caco-2) |
| --- | --- | --- | --- | --- | --- | --- | --- |
| Cc1cc(COc2ccc(NC(=O)[C@@H]3[C@@H](C(=O)NO)CCCN3Cc3nccs3)cc2)c2ccccc2n1 | > 4950 nM | 1 nM | > 3330 nM | > 2130 nM | 1400 nM | – | – |
| Cc1cc(COc2ccc(NC(=O)[C@H]3CCN(C(=O)c4ccco4)C[C@@H]3C(=O)NO)cc2)c2ccccc2n1 | > 4950 nM | 0.066 nM | > 1010 nM | > 465 nM | 170 nM | 10 µg/mL (≈ 18.9 µM) | 0.1 10e-6 cm s-1 |
| Cc1cc(COc2ccc(NC(=O)[C@H]3CCN(S(C)(=O)=O)C[C@@H]3C(=O)NO)cc2)c2ccccc2n1 | > 4950 nM | 0.48 nM | 656 nM | 306 nM | 1360 nM | – | – |
| CC(=O)N1CC[C@H](C(=O)Nc2ccc(COc3ccnc4ccccc34)cc2)[C@@H](C(=O)NO)C1 | > 4950 nM | 1 nM | > 3330 nM | > 2130 nM | 560 nM | – | – |
| Cc1cc(COc2ccc(NC(=O)[C@H]3CCN(C(C)C)C[C@@H]3C(=O)NO)cc2)c2ccccc2n1 | > 4950 nM | 1.2 nM | > 3330 nM | > 2130 nM | 1200 nM | > 10000 µg/mL | – |
| Cc1cc(COc2ccc(NC(=O)[C@H]3CCN(C(=O)OCc4cscn4)C[C@@H]3C(=O)NO)cc2)c2ccccc2n1 | > 4950 nM | < 0.3 nM | 476 nM | 296 nM | 530 nM | – | – |
| Cc1cc(COc2ccc(NC(=O)[C@H]3CCN(C(=O)OC(C)C)C[C@@H]3C(=O)NO)cc2)c2ccccc2n1 | > 4950 nM | 0.44 nM | 771 nM | 252 nM | 210 nM | – | – |
| Cc1cc(COc2ccc(NC(=O)[C@@H]3[C@@H](C(=O)NO)CCCN3C)cc2)c2ccccc2n1 | > 4950 nM | 6.2 nM | > 3330 nM | > 2130 nM | 20 nM | – | – |
| Cc1cc(COc2ccc(NC(=O)[C@H]3CN(C(=O)c4ccco4)CC[C@@H]3C(=O)NO)cc2)c2ccccc2n1 | > 4950 nM | < 0.3 nM | > 3330 nM | > 2130 nM | 1300 nM | < 100 µg/mL | 0.2 10e-6 cm s-1 |
| Cc1cc(COc2ccc(NC(=O)[C@H]3CN(C)CC[C@@H]3C(=O)NO)cc2)c2ccccc2n1 | > 4950 nM | 5 nM | > 3330 nM | > 2130 nM | 100 nM | – | – |
| Cc1cc(COc2ccc(NC(=O)[C@H]3CCN(C(=O)OC4CC4)C[C@@H]3C(=O)NO)cc2)c2ccccc2n1 | > 4950 nM | 0.83 nM | 642 nM | 209 nM | 700 nM | – | – |
| CC(=O)N1CC[C@H](C(=O)Nc2ccc(COc3ccnc4cc(C(F)(F)F)ccc34)cc2)[C@@H](C(=O)NO)C1 | > 4950 nM | 3.2 nM | > 3330 nM | > 2130 nM | 2600 nM | – | – |
| Cc1cc(COc2ccc(NC(=O)[C@H]3CCN(C(=O)C4CC4)C[C@@H]3C(=O)NO)cc2)c2ccccc2n1 | > 4950 nM | 0.45 nM | > 2450 nM | > 1660 nM | 390 nM | 50 µg/mL (≈ 99.5 µM) | 0.2 10e-6 cm s-1 |
| Cc1cc(COc2ccc(NC(=O)[C@H]3CCN(C4CCC4)C[C@@H]3C(=O)NO)cc2)c2ccccc2n1 | > 4950 nM | 1.6 nM | > 3330 nM | > 2130 nM | 1100 nM | > 10000 µg/mL | – |
| O=C(NO)[C@H]1CN(C(=O)c2ccco2)CC[C@@H]1C(=O)Nc1ccc(COc2ccnc3ccccc23)cc1 | > 4950 nM | 0.8 nM | > 3330 nM | > 2130 nM | 700 nM | – | – |
| Cc1cc(OCc2ccc(NC(=O)[C@H]3CCN(C(=O)c4ccco4)C[C@@H]3C(=O)NO)cc2)c2ccccc2n1 | > 4950 nM | 3 nM | > 3330 nM | > 2130 nM | 3400 nM | – | – |
